From patent US20260347338A1, “PYRIMIDINE/PYRIDINE DERIVATIVES OR SALTS THEREOF AND PHARMACEUTICAL COMPOSITIONS COMPRISING THE SAME” (YUHAN CORPORATION, priority 2023, published 2026) come the findings set out here.

For this test, the target named is T1, human recombinant HPK1 (Homo sapiens, UniProt Q92918).
T1 construct: purchased BPS Bioscience
Kind of test: Inhibitory activity against human recombinant HPK1 (TR-FRET). The conditions noted are these: ULight-p70S6K peptide, ATP at Km, room temperature, 1 hour, 0.32 to 1000 nM compound. It counts as biochemical. An outline of the steps:
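IC50 classes A–D use 10, 50 and 100 nM cut-offs, derived from TR-FRET signal inhibition relative to DMSO controls. Human recombinant HPK1 phosphorylated ULight-p70S6K peptide at Km ATP for 1 h, room temperature, pH 7.4; test range 0.32–1000 nM final, detection with Eu-labelled antibody after EDTA quench.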

The structures appear in SMILES notation. Counter-ions that a name gives are not always drawn. Bounds are passed on as bounds.

T1 sequence (Q92918 whole entry): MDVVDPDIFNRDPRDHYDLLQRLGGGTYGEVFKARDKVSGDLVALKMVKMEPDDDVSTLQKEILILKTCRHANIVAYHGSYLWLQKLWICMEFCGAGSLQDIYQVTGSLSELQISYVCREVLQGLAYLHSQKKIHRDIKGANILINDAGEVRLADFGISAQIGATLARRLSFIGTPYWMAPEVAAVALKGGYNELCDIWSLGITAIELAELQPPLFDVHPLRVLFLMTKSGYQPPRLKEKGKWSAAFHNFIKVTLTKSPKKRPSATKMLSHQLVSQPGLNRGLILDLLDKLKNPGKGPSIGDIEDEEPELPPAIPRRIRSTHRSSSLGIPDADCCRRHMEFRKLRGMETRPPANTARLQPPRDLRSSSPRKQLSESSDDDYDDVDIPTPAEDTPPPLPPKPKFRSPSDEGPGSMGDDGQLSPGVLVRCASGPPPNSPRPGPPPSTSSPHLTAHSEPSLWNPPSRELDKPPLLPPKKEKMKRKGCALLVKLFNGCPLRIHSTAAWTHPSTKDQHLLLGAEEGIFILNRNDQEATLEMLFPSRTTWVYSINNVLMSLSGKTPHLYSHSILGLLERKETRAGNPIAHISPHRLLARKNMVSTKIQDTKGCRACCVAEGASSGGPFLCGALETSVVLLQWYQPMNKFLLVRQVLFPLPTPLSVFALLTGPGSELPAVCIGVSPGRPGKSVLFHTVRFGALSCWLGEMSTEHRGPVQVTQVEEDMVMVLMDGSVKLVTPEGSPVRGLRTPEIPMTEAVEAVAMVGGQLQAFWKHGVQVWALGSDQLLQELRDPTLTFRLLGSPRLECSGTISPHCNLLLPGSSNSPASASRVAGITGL

As a reminder, the IC50 is the concentration at which inhibition is half-maximal. For `COc1cc(F)cc(F)c1-c1nccc(Nc2cc(N3CCC[C@](C)(N)C3)c(-c3cnn(C(F)F)c3)cn2)n1` [Example 212, (S)-N-(4-(3-amino-3-methylpiperidin-1-yl)-5-(1-(difluoromethyl)-1H-pyrazol-4-yl)pyridin-2-yl)-2-(2,4-difluoro-6-methoxyphenyl)pyrimidin-4-amine hydrochloride], the IC50 is ≤ 0.01 µM. The result for `COc1cc(F)cc(F)c1-c1nccc(Nc2cc(N3CC[C@@H](O)[C@H](N)C3)c(-c3cnn(C(F)F)c3)cn2)n1` [Example 213, (3R,4R)-3-amino-1-(2-((2-(2,4-difluoro-6-methoxyphenyl)pyrimidin-4-yl)amino)-5-(1-(difluoromethyl)-1H-pyrazol-4-yl)pyridin-4-yl)piperidin-4-ol hydrochloride] reads ≤ 0.01 µM; that for `COc1cccc(F)c1-c1nccc(Nc2cc(N(C)C3CCC(O)CC3)c(-c3cnn(C(F)F)c3)cn2)n1` [Example 214, (1S,4S)-4-((5-(1-(difluoromethyl)-1H-pyrazol-4-yl)-2-((2-(2-fluoro-6-methoxyphenyl)pyrimidin-4-yl)amino)pyridin-4-yl)(methyl)amino)cyclohexan-1-ol], ≤ 0.01 µM. For `COc1cc(F)cc(F)c1-c1nc(Nc2cc(N3CC[C@@H](C)[C@H](N)C3)c(-c3cnn(C(F)F)c3)cn2)ccc1N` [Example 215, N^2-(4-((3S,4R)-3-amino-4-methylpiperidin-1-yl)-5-(1-(difluoromethyl)-1H-pyrazol-4-yl)pyridin-2-yl)-6-(2,4-difluoro-6-methoxyphenyl)pyridin-2,5-diamine hydrochloride], the IC50 is ≤ 0.01 µM. The result for `COc1cc(F)cc(F)c1-c1nc(Nc2cc(N3CC[C@@H](F)[C@H](N)C3)c(-c3cnn(C(F)F)c3)cn2)ccc1N` [Example 216, N^2-(4-((3R,4R)-3-amino-4-fluoropiperidin-1-yl)-5-(1-(difluoromethyl)-1H-pyrazol-4-yl)pyridin-2-yl)-6-(2,4-difluoro-6-methoxyphenyl)pyridin-2,5-diamine hydrochloride] reads ≤ 0.01 µM. Take `COc1cc(F)cc(F)c1-c1nccc(Nc2cc(N3CCC[C@H](O)C3)c(C#Cc3cnn(C(F)F)c3)cn2)n1` [Example 217, (S)-1-(2-((2-(2,4-difluoro-6-methoxyphenyl)pyrimidin-4-yl)amino)-5-((1-(difluoromethyl)-1H-pyrazol-4-yl)ethynyl)pyridin-4-yl)piperidin-3-ol]: the IC50 is ≤ 0.01 µM. For `COc1cc(F)cc(F)c1-c1nccc(Nc2cc(N3CCC[C@H](O)C3)c(C#Cc3cnn(C(F)(F)F)c3)cn2)n1` [Example 218, (S)-1-(2-((2-(2,4-difluoro-6-methoxyphenyl)pyrimidin-4-yl)amino)-5-((1-(trifluoromethyl)-1H-pyrazol-4-yl)ethynyl)pyridin-4-yl)piperidin-3-ol], the concentration for half-maximal inhibition (IC50) is ≤ 0.01 µM. The result for `COc1cc(F)cc(F)c1-c1nccc(Nc2cc(N3CCC[C@H](O)C3)c(C#Cc3cnn(CC(F)F)c3)cn2)n1` [Example 219, (S)-1-(2-((2-(2,4-difluoro-6-methoxyphenyl)pyrimidin-4-yl)amino)-5-((1-(2,2-difluoroethyl)-1H-pyrazol-4-yl)ethynyl)pyridin-4-yl)piperidin-3-ol] reads ≤ 0.01 µM; that for `COc1cc(F)cc(F)c1-c1nccc(Nc2cc(N3CCC[C@H](O)C3)c(C#Cc3cnn(CC(F)(F)F)c3)cn2)n1` [Example 220, (S)-1-(2-((2-(2,4-difluoro-6-methoxyphenyl)pyrimidin-4-yl)amino)-5-((1-(2,2,2-trifluoroethyl)-1H-pyrazol-4-yl)ethynyl)pyridin-4-yl)piperidin-3-ol], ≤ 0.01 µM; that for `COc1cccc(F)c1-c1nc(Nc2cc(N3CCC[C@H](O)C3)c(C#Cc3cnn(CC(F)F)c3)cn2)ccc1[N+](=O)[O-]` [Example 221, (3S)-1-(5-((1-(2,2-difluoroethyl)-1H-pyrazol-4-yl)ethynyl)-2-((6-(2-fluoro-6-methoxyphenyl)-5-nitropyridin-2-yl)amino)pyridin-4-yl)piperidin-3-ol], ≤ 0.01 µM. The result for `COc1cccc(F)c1-c1nc(Nc2cc(N3CCC[C@H](O)C3)c(C#Cc3cnn(C(F)F)c3)cn2)ccc1[N+](=O)[O-]` [Example 222, (3S)-1-(5-((1-(difluoromethyl)-1H-pyrazol-4-yl)ethynyl)-2-((6-(2-fluoro-6-methoxyphenyl)-5-nitropyridin-2-yl)amino)pyridin-4-yl)piperidin-3-ol] reads ≤ 0.01 µM. Regarding `COc1cc(F)cc(F)c1-c1nc(Nc2cc(N3CCC[C@H](O)C3)c(-c3cnn(CC(F)F)c3)cn2)ccc1[N+](=O)[O-]` [Example 223, (3S)-1-(2-((6-(2,4-difluoro-6-methoxyphenyl)-5-nitropyridin-2-yl)amino)-5-(1-(2,2-difluoroethyl)-1H-pyrazol-4-yl)pyridin-4-yl)piperidin-3-ol], the IC50 is ≤ 0.01 µM. With `COc1cc(F)cc(F)c1-c1nc(Nc2cc(N3CCC[C@H](O)C3)c(-c3cnn(C4CCOCC4)c3)cn2)ccc1[N+](=O)[O-]` [Example 224, (3S)-1-(2-((6-(2,4-difluoro-6-methoxyphenyl)-5-nitropyridin-2-yl)amino)-5-(1-(tetrahydro-2H-pyran-4-yl)-1H-pyrazol-4-yl)pyridin-4-yl)piperidin-3-ol], the IC50 is ≤ 0.01 µM. The result for `COc1cc(F)cc(F)c1-c1nc(Nc2cc(N3CCC[C@H](O)C3)c(C#CC3CCOCC3)cn2)ccc1[N+](=O)[O-]` [Example 225, (3S)-1-(2-((6-(2,4-difluoro-6-methoxyphenyl)-5-nitropyridin-2-yl)amino)-5-((tetrahydro-2H-pyran-4-yl)ethynyl)pyridin-4-yl)piperidin-3-ol] reads ≤ 0.01 µM; that for `COc1cc(F)cc(F)c1-c1nc(Nc2cc(N3CCC[C@H](O)C3)c(-c3cnn(CC(F)F)c3)cn2)ccc1N` [Example 226, (3S)-1-(2-((5-amino-6-(2,4-difluoro-6-methoxyphenyl)pyridin-2-yl)amino)-5-(1-(2,2-difluoroethyl)-1H-pyrazol-4-yl)pyridin-4-yl)piperidin-3-ol], ≤ 0.01 µM. The result for `COc1cc(F)cc(F)c1-c1nc(Nc2cc(N3CCC[C@H](O)C3)c(-c3cnn(C4CCOCC4)c3)cn2)ccc1N` [Example 227, (3S)-1-(2-((5-amino-6-(2,4-difluoro-6-methoxyphenyl)pyridin-2-yl)amino)-5-(1-(tetrahydro-2H-pyran-4-yl)-1H-pyrazol-4-yl)pyridin-4-yl)piperidin-3-ol] reads ≤ 0.01 µM; that for `COc1cc(F)cc(F)c1-c1nc(Nc2cc(N3CCC[C@H](O)C3)c(CCC3CCOCC3)cn2)ccc1N` [Example 228, (3S)-1-(2-((5-amino-6-(2,4-difluoro-6-methoxyphenyl)pyridin-2-yl)amino)-5-(2-(tetrahydro-2H-pyran-4-yl)ethyl)pyridin-4-yl)piperidin-3-ol], 0.01 to 0.05 µM. Consider `COc1cccc(F)c1-c1nccc(Nc2cc(N3CCC[C@H](N)C3)c(-c3cnn(CC(C)(C)OC)c3)cn2)n1` [Example 229, (S)-N-(4-(3-aminopiperidin-1-yl)-5-(1-(2-methoxy-2-methylpropyl)-1H-pyrazol-4-yl)pyridin-2-yl)-2-(2-fluoro-6-methoxyphenyl)pyrimidin-4-amine], for which the IC50 is ≤ 0.01 µM. To `COCCOc1ccc(-c2cnc(Nc3ccnc(-c4c(F)cccc4OC)n3)cc2N2CCC[C@H](N)C2)cn1` [Example 230, (S)-4-(3-aminopiperidin-1-yl)-N-(2-(2-fluoro-6-methoxyphenyl)pyrimidin-4-yl)-6′-(2-methoxyethoxy)-[3,3′-bipyridin]-6-amine] belongs ≤ 0.01 µM; to `COc1cc(C(=O)N2CC(F)(F)C2)cc(F)c1-c1nccc(Nc2cc(N3CCC[C@H](O)C3)c(-c3cnn(C(F)F)c3)cn2)n1` [Example 231, (S)-(3,3-difluoroazetidin-1-yl)(4-(4-((5-(1-(difluoromethyl)-1H-pyrazol-4-yl)-4-(3-hydroxypiperidin-1-yl)pyridin-2-yl)amino)pyrimidin-2-yl)-3-fluoro-5-methoxyphenyl)methanone], ≤ 0.01 µM; to `COc1cc(C(=O)N2CC[C@H](F)C2)cc(F)c1-c1nccc(Nc2cc(N3CCC[C@H](O)C3)c(-c3cnn(C(F)F)c3)cn2)n1` [Example 232, (4-(4-((5-(1-(difluoromethyl)-1H-pyrazol-4-yl)-4-((S)-3-hydroxypiperidin-1-yl)pyridin-2-yl)amino)pyrimidin-2-yl)-3-fluoro-5-methoxyphenyl)((S)-3-fluoropyrrolidin-1-yl)methanone], ≤ 0.01 µM. As to `COc1cc(C(=O)N2CC[C@@H](F)C2)cc(F)c1-c1nccc(Nc2cc(N3CCC[C@H](O)C3)c(-c3cnn(C(F)F)c3)cn2)n1` [Example 233, (4-(4-((5-(1-(difluoromethyl)-1H-pyrazol-4-yl)-4-((S)-3-hydroxypiperidin-1-yl)pyridin-2-yl)amino)pyrimidin-2-yl)-3-fluoro-5-methoxyphenyl)((R)-3-fluoropyrrolidin-1-yl)methanone], the concentration for half-maximal inhibition (IC50) is ≤ 0.01 µM.

Turning to `COc1cc(C(=O)N2CCC(F)(F)C2)cc(F)c1-c1nccc(Nc2cc(N3CCC[C@H](O)C3)c(-c3cnn(C(F)F)c3)cn2)n1` [Example 234, (S)-(4-(4-((5-(1-(difluoromethyl)-1H-pyrazol-4-yl)-4-(3-hydroxypiperidin-1-yl)pyridin-2-yl)amino)pyrimidin-2-yl)-3-fluoro-5-methoxyphenyl)(3,3-difluoropyrrolidin-1-yl)methanone], the IC50 was ≤ 0.01 µM. The result for `COc1cccc(F)c1-c1nccc(Nc2cc(N3CCC[C@H](N)C3)c(-c3cnn(CC(C)(C)O)c3)cn2)n1` [Example 235, (S)-1-(4-(4-(3-aminopiperidin-1-yl)-6-((2-(2-fluoro-6-methoxyphenyl)pyrimidin-4-yl)amino)pyridin-3-yl)-1H-pyrazol-1-yl)-2-methylpropan-2-ol hydrochloride] reads ≤ 0.01 µM.
